Structures are written as SMILES.

The term inhibition denotes the drop in the measured response relative to a control, in per cent.

Holding throughout (format): cell-based
The subject of test [1] is KRas-mediated Phosphorylation of ERK in A549 cells. In words: Cisbio HTRF pERK assay, A549 cells. As to conditions: Homo sapiens, A549, A549 cells, single point at 100 nM. For orientation: In TR-FRET formats the signal depends on donor and acceptor labels being close together.
For test [2], the system named is KRas-mediated Phosphorylation of ERK in H358 cells. In words: Cisbio HTRF pERK assay, H358 cells. The settings on record: Homo sapiens, NCI-H358, H358 cells, single point at 100 nM.
Test [3] has as its system KRas-mediated Phosphorylation of ERK in H460 cells. In words: Cisbio HTRF pERK assay, H460 cells. The settings on record: single point at 100 nM; for inhibition at 0.1 µM: Homo sapiens, NCI-H460, H460 cells; for Inhibition (HTRF % at 100 nM) of KRas-mediated Phosphorylation of ERK, H460: H460 cells, 0.1 µM.
Test [4] relates to KRas-mediated Phosphorylation of ERK in HCT116 cells. In words: Cisbio HTRF pERK assay, HCT116 cells. The settings on record: single point at 100 nM; for inhibition at 0.1 µM: Homo sapiens, HCT-116, HCT116 cells; for Inhibition (HTRF % at 100 nM) of KRas-mediated Phosphorylation of ERK, HCT116: HCT116 cells, 0.1 µM.

For the compound `CCc1c(F)ccc2cc(O)cc(-c3c(F)cc4c(N5CCCC6(CNS(=O)(=O)N6)C5)nc(OCC5(CN(C)C)CC5)nc4c3F)c12` (stereo not drawn) [Example 50, 7-(2-((1-((dimethylamino)methyl)cyclopropyl)methoxy)-7-(8-ethyl-7-fluoro-3-hydroxynaphthalen-1-yl)-6,8-difluoroquinazolin-4-yl)-2-thia-1,3,7-triazaspiro[4.5]decane 2,2-dioxide], the inhibition at 0.1 µM in test [1] is -17%; in test [2], 3%; in test [3] it was 38%; in test [4], -3%.
`CCc1c(F)ccc2cc(O)cc(-c3c(F)cc4c(N5CCOCC(C)(O)C5)nc(OCC5(CN(C)C)CC5)nc4c3F)c12` (stereo not drawn) [Example 56, 4-(2-((1-((dimethylamino)methyl)cyclopropyl)methoxy)-7-(8-ethyl-7-fluoro-3-hydroxynaphthalen-1-yl)-6,8-difluoroquinazolin-4-yl)-6-methyl-1,4-oxazepan-6-ol]: the inhibition at 0.1 µM in test [1] turned out to be 47%; in test [2], 87%; in test [3] it was 86%; in test [4] it was 51%.
For `CCc1c(F)ccc2cc(O)cc(C3Cc4nc(OC[C@@]56CCCN5C[C@H](F)C6)nc(N5C[C@@H]6C[C@H](C5)[C@H](O)C6)c4CO3)c12` (stereo partly drawn) [Example 86, (1R,5R,6R)-3-(7-(8-ethyl-7-fluoro-3-hydroxynaphthalen-1-yl)-2-(((2R,7aS)-2-fluorotetrahydro-1H-pyrrolizin-7a(5H)-yl)methoxy)-7,8-dihydro-5H-pyrano[4,3-d]pyrimidin-4-yl)-3-azabicyclo[3.2.1]octan-6-ol] the same measures were 0%, -14%, -1% and -12%.
For `CCc1c(F)ccc2cc(O)cc(-c3c(F)cc4c(N5CCCn6nc(C(=O)N(C)C)c(C)c6C5)nc(OC[C@@]56CCCN5C[C@H](F)C6)nc4c3F)c12` [Example 80, 5-(7-(8-ethyl-7-fluoro-3-hydroxynaphthalen-1-yl)-6,8-difluoro-2-(((2R,7aS)-2-fluorohexahydro-1H-pyrrolizin-7a-yl)methoxy)quinazolin-4-yl)-N,N,3-trimethyl-5,6,7,8-tetrahydro-4H-pyrazolo[1,5-a][1,4]diazepine-2-carboxamide], in that order: 83%, 95%, 89% and 71%.
For `O=S1(=O)NCC2(CCCN(c3nc(OC[C@@]45CCCN4C[C@H](F)C5)nc4c(F)c(-c5cc(O)cc6ccc(F)c(Cl)c56)ccc34)C2)N1` (stereo partly drawn) [Example 72, 7-(7-(8-chloro-7-fluoro-3-hydroxynaphthalen-1-yl)-8-fluoro-2-(((2R,7aS)-2-fluorohexahydro-1H-pyrrolizin-7a-yl)methoxy)quinazolin-4-yl)-2-thia-1,3,7-triazaspiro[4.5]decane 2,2-dioxide] the same measures were 76%, 98%, 87% and 69%.
`CCc1c(F)ccc2cc(O)cc(-c3ccc4c(N5CCOCC(C)(O)C5)nc(OCC5(CN(C)C)CC5)nc4c3F)c12` (stereo not drawn) [Example 42, 4-(2-((1-((dimethylamino)methyl)cyclopropyl)methoxy)-7-(8-ethyl-7-fluoro-3-hydroxynaphthalen-1-yl)-8-fluoroquinazolin-4-yl)-6-methyl-1,4-oxazepan-6-ol]: the inhibition at 0.1 µM in test [1] turned out to be 39%; in test [2], 71%; in test [3], 59%; in test [4], 30%.
Turning to `CCc1c(F)ccc2cc(O)cc(-c3c(F)cc4c(N5CCCn6nc(C(=O)N(C)C)cc6C5)nc(OC[C@@]56CCCN5C[C@H](F)C6)nc4c3F)c12` (atropisomer, axis not shown; (aS)) [Example 63, 5-((R)-7-(8-ethyl-7-fluoro-3-hydroxynaphthalen-1-yl)-6,8-difluoro-2-(((2R,7aS)-2-fluorohexahydro-1H-pyrrolizin-7a-yl)methoxy)quinazolin-4-yl)-N,N-dimethyl-5,6,7,8-tetrahydro-4H-pyrazolo[1,5-a][1,4]diazepine-2-carboxamide], in test [3], the “Inhibition (HTRF % at 100 nM) of KRas-mediated Phosphorylation of ERK, H460” value (“Inhibition (HTRF % at 100 nM) … H460” for short) is on record as 82%. Besides, in test [4], the “Inhibition (HTRF % at 100 nM) of KRas-mediated Phosphorylation of ERK, HCT116” value (shortened to “Inhibition (HTRF % at 100 nM) … HCT116”) came out at 61%.
In the case of `CCc1c(F)ccc2cc(O)cc(-c3c(F)cc4c(N5CCCn6nc(C(=O)NC(C)C)cc6C5)nc(OC[C@@]56CCCN5C[C@H](F)C6)nc4c3F)c12` [Example 59, 5-(7-(8-ethyl-7-fluoro-3-hydroxynaphthalen-1-yl)-6,8-difluoro-2-(((2R,7aS)-2-fluorotetrahydro-1H-pyrrolizin-7a(51)-yl)methoxy)quinazolin-4-yl)-N-isopropyl-5,6,7,8-tetrahydro-4H-pyrazolo[1,5-a][1,4]diazepine-2-carboxamide], the inhibition at 0.1 µM amounted to 36% in test [3] and 23% in test [4].
For `CCc1c(F)ccc2cc(O)cc(-c3c(O)cc4c(N(C)C)nc(OC[C@@]56CCCN5C[C@H](F)C6)nc4c3F)c12` [Example 28, 4-(dimethylamino)-7-(8-ethyl-7-fluoro-3-hydroxynaphthalen-1-yl)-8-fluoro-2-(((2R,7aS)-2-fluorotetrahydro-1H-pyrrolizin-7a(5H)-yl)methoxy)quinazolin-6-ol] the same measures were 8% and 9%.
As to `CCc1c(F)ccc2cc(O)cc(-c3c(F)cc4c(N5CCOC[C@@](C)(O)C5)nc(OC[C@@]56CCCN5C[C@H](F)C6)nc4c3F)c12` (atropisomer, axis not shown; (aS)) [Example 66, (S)-4-((R)-7-(8-ethyl-7-fluoro-3-hydroxynaphthalen-1-yl)-6,8-difluoro-2-(((2R,7aS)-2-fluorohexahydro-1H-pyrrolizin-7a-yl)methoxy)quinazolin-4-yl)-6-methyl-1,4-oxazepan-6-ol], the “Inhibition (HTRF % at 100 nM) … H460” value in test [3] is on record as 97%. Besides, in test [4], the “Inhibition (HTRF % at 100 nM) … HCT116” value worked out at 97%.
Take `CCc1c(F)ccc2cc(O)cc(-c3ccc4c(N5CC6C(=O)NC(=O)C6C5)nc(OCC5(CN(C)C)CC5)nc4c3F)c12` (stereo not drawn) [Example 39, 5-(2-((1-((dimethylamino)methyl)cyclopropyl)methoxy)-7-(8-ethyl-7-fluoro-3-hydroxynaphthalen-1-yl)-8-fluoroquinazolin-4-yl)tetrahydropyrrolo[3,4-c]pyrrole-1,3(2H,3aH)-dione]: the inhibition at 0.1 µM in test [3] turned out to be 11%; in test [4], 3%.
For the compound `CCc1c(F)ccc2cc(O)cc(-c3c(F)cc4c(N5CCOC[C@@](C)(O)C5)nc(OC[C@@]56CCCN5C[C@H](F)C6)nc4c3F)c12` (atropisomer, axis not shown; (aS)) [Example 65, (S)-4-((S)-7-(8-ethyl-7-fluoro-3-hydroxynaphthalen-1-yl)-6,8-difluoro-2-(((2R,7aS)-2-fluorohexahydro-1H-pyrrolizin-7a-yl)methoxy)quinazolin-4-yl)-6-methyl-1,4-oxazepan-6-ol], in test [3], the “Inhibition (HTRF % at 100 nM) … H460” value was 1%. The “Inhibition (HTRF % at 100 nM) … HCT116” value in test [4] worked out at 16%.

For the origin of these results see patent US20240025907A1, “QUINAZOLINE PAN-KRas INHIBITORS” (Mirati Therapeutics, Inc., priority 2022, published 2024).
